Experimental findings from ChEMBL document CHEMBL3992542, “Synthesis of cholesteryl doxorubicin and its anti-cancer activity” (Bioorg Med Chem Lett, 2017) are described below.

Calls of active or inactive are those of the source. The calls are words filed in the database; no cut-off is given here.

Data set [1] relates to MDA-MB-231. The data set is described as follows: Cytotoxicity against human MDA-MB-231 cells assessed as decrease in cell viability at 10 uM treated for 2 hrs measured after 48 hrs by MTT assay. Type of data set: functional, cell-based. On the technique in general: Formazan colour is commonly taken as a measure of viable cells.
Data set [2] deals with A549. The data set can be described thus: Cytotoxicity against human A549 cells assessed as decrease in cell viability treated for 2 hrs measured after 48 hrs by MTT assay. The class given is functional, cell-based.
Data set [3] has as its system A549. The data set is described as follows: Cytotoxicity against human A549 cells assessed as decrease in cell viability at 10 uM treated for 2 hrs measured after 48 hrs by MTT assay. Type of data set: functional, cell-based.
For data set [4], the system named is MDA-MB-231. The data set is described as follows: Cytotoxicity against human MDA-MB-231 cells assessed as decrease in cell viability treated for 2 hrs measured after 48 hrs by MTT assay. The class given is functional, cell-based.
The nature of data set [5]: Drug uptake in human MDA-MB-231 cells at 5 uM after 24 hrs by flow cytometric analysis. Type of data set: ADME, cell-based. To be noted: mda-mb-231, 24 h. Background: Flow cytometry measures light scatter and fluorescence of single cells or particles in a stream.
For data set [6], the system named is HeLa. The data set can be described thus: Cytotoxicity against human HeLa cells assessed as decrease in cell viability treated for 2 hrs measured after 48 hrs by MTT assay. The class given is functional, cell-based.
Data set [7] relates to MCF7. The data set can be described thus: Cytotoxicity against human MCF7 cells assessed as decrease in cell viability treated for 2 hrs measured after 48 hrs by MTT assay. Type of data set: functional, cell-based.
In data set [8] the test system is HeLa. The data set is described as follows: Cytotoxicity against human HeLa cells assessed as decrease in cell viability at 5 uM treated for 2 hrs measured after 48 hrs by MTT assay. Type of data set: functional, cell-based.
A short description of data set [9]: Drug uptake in human HeLa cells at 5 uM after 24 hrs by flow cytometric analysis. The class given is ADME, cell-based.
The subject of data set [10] is MCF7. The data set is described as follows: Cytotoxicity against human MCF7 cells assessed as decrease in cell viability at 5 uM treated for 2 hrs measured after 48 hrs by MTT assay. The class given is functional, cell-based.
Data set [11] in a line: Drug uptake in nucleus of human MDA-MB-231 cells at 5 uM after 2 hrs by fluorescence microscopic method. The class given is ADME.
A short description of data set [12]: Drug uptake in nucleus of human HeLa cells at 5 uM after 2 hrs by fluorescence microscopic method. Type of data set: ADME, cell-based.
The nature of data set [13]: Drug uptake in nucleus of human A549 cells at 5 uM after 2 hrs by fluorescence microscopic method. The class given is ADME, cell-based. The note with it: a549, 2 h.
Data set [14] is described as follows: Drug uptake in human HeLa cells at 5 uM after 2 hrs by flow cytometric analysis. Type of data set: ADME, cell-based.
Data set [15] can be described thus: Drug uptake in nucleus of human A549 cells at 5 uM after 24 hrs by fluorescence microscopic method. The class given is ADME, cell-based. To be noted: a549, 24 h.
The nature of data set [16]: Drug uptake in nucleus of human HeLa cells at 5 uM after 24 hrs by fluorescence microscopic method. Type of data set: ADME, cell-based.
The nature of data set [17]: Drug uptake in human MDA-MB-231 cells at 5 uM after 2 hrs by flow cytometric analysis. The note with it: mda-mb-231, 2 h. The class given is ADME, cell-based.
Data set [18] in a line: Drug uptake in nucleus of human MDA-MB-231 cells at 5 uM after 24 hrs by fluorescence microscopic method. Type of data set: ADME.
Data set [19] can be described thus: Drug uptake in cytoplasm of human HeLa cells at 5 uM after 2 hrs by fluorescence microscopic method. Type of data set: ADME, cell-based.
Data set [20] can be described thus: Drug uptake in cytoplasm of human A549 cells at 5 uM after 2 hrs by fluorescence microscopic method. To be noted: a549, 2 h. The class given is ADME, cell-based.
Data set [21] in a line: Drug uptake in cytoplasm of human MDA-MB-231 cells at 5 uM after 2 hrs by fluorescence microscopic method. The class given is ADME.

In general, IC50 refers to the midpoint of a concentration-inhibition curve. On to `COc1cccc2c1C(=O)c1c(O)c3c(c(O)c1C2=O)C[C@@](O)(C(=O)COC(=O)CCC(=O)NCCCNC(=O)O[C@H]1CC[C@@]2(C)C(=CC[C@H]4[C@@H]5CC[C@H]([C@H](C)CCCC(C)C)[C@@]5(C)CC[C@@H]42)C1)C[C@@H]3O[C@H]1C[C@H](N)[C@H](O)[C@H](C)O1`, for which the result with MDA-MB-231 [1], in the data set on A549 [3], in the data set with HeLa [8] and in the data set on MCF7 [10] was Active. Besides, the IC50 was 8.03 µM in the data set with A549 [2], 16.4 µM with MDA-MB-231 [4], 8.03 µM in the data set on HeLa [6] and 9.69 µM with MCF7 [7]. Besides, the Drug uptake entry in [5] and in [9] was “Not Active” in each case.
As to `COc1cccc2c1C(=O)c1c(O)c3c(c(O)c1C2=O)C[C@@](O)(C(=O)CO)C[C@@H]3O[C@H]1C[C@H](N)[C@H](O)[C@H](C)O1` [DOXORUBICIN], the IC50 was found to be 11.6 µM in the data set with A549 [2], 14.7 µM in the data set with MDA-MB-231 [4], 7.18 µM in the data set on HeLa [6] and 4.39 µM with MCF7 [7]. Also, the Drug uptake result in data set [5] is listed as “Not Active”; in [11] it was “Active”; in [12], “Active”; in [13] it was “Active”; in data set [14], “Active”; in data set [9], “Not Active”. For the same compound, the Drug uptake result in data set [15] was “Not Active”; in [16] it was “Not Active”; in [17], “Active”; in data set [18], “Not Active”.
Take `COc1cccc2c1C(=O)c1c(O)c3c(c(O)c1C2=O)C[C@@](O)(C(=O)CO)C[C@@H]3O[C@H]1C[C@H](NC(=O)CCC(=O)NCCCO[C@H]2CC[C@@]3(C)C(=CC[C@H]4[C@@H]5CC[C@H]([C@H](C)CCCC(C)C)[C@@]5(C)CC[C@@H]43)C2)[C@H](O)[C@H](C)O1`: the result with MDA-MB-231 [1], in the data set with A549 [3], in the data set on HeLa [8] and in the data set with MCF7 [10] was inactive.
As to `COc1cccc2c1C(=O)c1c(O)c3c(c(O)c1C2=O)C[C@@](O)(C(=O)COC(=O)CCC(=O)NCCCO[C@H]1CC[C@@]2(C)C(=CC[C@H]4[C@@H]5CC[C@H]([C@H](C)CCCC(C)C)[C@@]5(C)CC[C@@H]42)C1)C[C@@H]3O[C@H]1C[C@H](N)[C@H](O)[C@H](C)O1`, the outcome in the data set with MDA-MB-231 [1], with A549 [3], with HeLa [8] and in the data set on MCF7 [10] was Active. Further, the IC50 in the data set on A549 [2] came to 11.2 µM; with MDA-MB-231 [4] it was 21.6 µM; with HeLa [6], 27.9 µM; in the data set on MCF7 [7], 9.94 µM. Further, the Drug uptake entry in data set [19], in [20], in [5], in data set [9], in [21] and in [15] was “Active” each time. The Drug uptake result in data set [16] and in data set [18] was “Active” in each case.
With `COc1cccc2c1C(=O)c1c(O)c3c(c(O)c1C2=O)C[C@@](O)(C(=O)CO)C[C@@H]3O[C@H]1C[C@H](NC(=O)CCC(=O)NCCCNC(=O)O[C@H]2CC[C@@]3(C)C(=CC[C@H]4[C@@H]5CC[C@H]([C@H](C)CCCC(C)C)[C@@]5(C)CC[C@@H]43)C2)[C@H](O)[C@H](C)O1`, the outcome with MDA-MB-231 [1], with A549 [3], in the data set with HeLa [8] and with MCF7 [10] was inactive.
